Assays:
[1] = system: CD206 expressing macrophages; assay: Apoptosis induction (Annexin-V) in MOs and KS tumor tissue; assay type: cell-based
Experimental: (§1) CD206 targeting assays were conducted using both in vitro monocyte-derived CD206+ macrophages (MOs) and ex vivo fresh Kaposi Sarcoma (KS) tumor tissue (provided by the AIDS and Cancer Specimen Resource [ACSR]). Tilmanocept-Cy3 with/without a chemo-therapeutic agent (CTA) attached (tilmanocept-Cy3-CTA or tilmanocept-Cy3) interactions with cellular and tumor targets were tracked by flow cytometry and immuno-histochemistry to evaluate Cy3-tilmanocept uptake and targeting capability for delivery of drug into KS tumor cells and TAMs.

[2] = system: luciferase-expressing M tuberculosis H37Rv strain (M.tb-Lux); assay: Anti-bacterial activity against M.tb in human macrophages (luminescence); assay type: cell-based
[3] = biological target: DC-SIGN (CD209) (Homo sapiens, UniProt Q9NNX6); settings: AF488-labeled tilmanocept, anti-DC-SIGN Ab staining
Experimental: The tissue sections were first deparaffinized with xylene, followed by rehydration with graded alcohols (100%, 95%). A heat-induced epitope retrieval procedure was carried out by heating the tissue slides in citrate buffer (pH 6.0) at 95° C. for 10 min (31). Each tissue section was rehydrated with PBS buffer, blocked (5% non-fat dry milk in PBS+0.01% sodium azide) for 3 h at room temperature, and then incubated with specific primary Abs using manufacturer-recommended dilutions in a humidified chamber at 4° C. overnight. After extensive washing with PBS, the sections were counter-stained with AF488-conjugated anti-mouse and AF549-conjugated anti-rabbit secondary Abs (double staining) for 1 h at room temperature. The sections were washed again extensively and stained with the nuclear DNA stain DAPI for 10 min at room temperature. After washing and drying at room temperature, the slides were examined by a Flow View 1000 Laser Scanning Confocal microscope (Olympus). The MFI of a randomly selected group of confocal images was quantified using a pixel intensity measurement (NIH Image J program).
FFPE lymph node tissue sections were subjected to the antigen retrieval procedure (see immunohistochemistry method above) followed by incubation with AF488-labeled tilmanocept and staining with anti-DC-SIGN Ab.

[4] = system: fresh Kaposi Sarcoma (KS) tumor tissue
Experimental: as §1

DC-SIGN (CD209), sequence (Q9NNX6 whole entry): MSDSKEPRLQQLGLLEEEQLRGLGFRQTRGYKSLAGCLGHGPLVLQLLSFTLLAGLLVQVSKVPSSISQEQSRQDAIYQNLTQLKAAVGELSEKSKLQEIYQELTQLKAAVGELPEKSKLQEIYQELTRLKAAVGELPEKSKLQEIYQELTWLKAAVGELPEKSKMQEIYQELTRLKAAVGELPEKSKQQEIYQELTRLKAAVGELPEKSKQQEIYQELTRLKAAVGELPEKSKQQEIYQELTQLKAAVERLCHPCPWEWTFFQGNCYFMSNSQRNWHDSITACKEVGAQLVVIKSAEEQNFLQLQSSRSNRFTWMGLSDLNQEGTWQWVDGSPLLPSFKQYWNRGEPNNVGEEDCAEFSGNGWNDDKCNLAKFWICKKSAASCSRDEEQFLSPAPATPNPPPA

**Q.** COc1cccc2c1C(=O)c1c(O)c3c(c(O)c1C2=O)C[C@@](O)(C(=O)CO)C[C@@H]3O[C@H]1C[C@H](N)[C@H](O)[C@H](C)O1 [Docorubicin, doxorubicin] was tested. Which “toxicity to CD206 expressing macrophages (Annexin levels, FIG. 17)” value [1] did it give?
**A.** The value was “no toxicity”.

**Q.** And the “apoptosis induction on MOs and in tumor tissue” value ([1]; Annexin-V, overnight)?
**A.** The value was “less effect”.

**Q.** Which “lowest concentration at which activity against M.tb is maintained” value [2] does the source give for NNC(=O)c1ccncc1 [INH, isoniazid] here?
**A.** Its value is 0.0312 µM.

**Q.** How did the “binding to cells in lymph node tissue sections” value [3] turn out when “dextran 3-[(2-aminoethyl)thio]propyl 17-carboxy-10,13,16-tris(carboxymethyl)-8-oxo-4-thia-7,10,13,16-tetraazaheptadec-1-yl 3-[[2-[[1-imino-2-(D-mannopyranosylthio)ethyl]amino]ethyl]thio]propyl ether complexes [Tilmanocept]” was run?
**A.** The value was “bind in clusters to a population of DC-SIGN-positive cells”.

**Q.** What about the “uptake in KS biopsy tissue culture” value [4] of the same compound?
**A.** Its value is “uptake co-localized with CD206+ macrophages”.

Reference: patent publication US20220211680A1, “COMPOUNDS AND COMPOSITIONS FOR TARGETING MACROPHAGES AND OTHER MANNOSE-BINDING C-TYPE LECTIN RECEPTOR HIGH EXPRESSING CELLS AND METHODS OF TREATING AND DIAGNOSIS USING SAME” (priority 2014, published 2022)
